# According to BindingDB's records for doi:10.7270/Q23F4N3R (Burnham Center For Chemical Genomics, 2011):
# Where a name gives a salt, the structure may show the parent alone. Where a SMILES comes first, the peptide text is derived from it. Bridges are numbered along the chain shown (N, C = ends). [ ]: non-standard residue; d: D form. The star is where a group is joined. X1 = CCC(C)C(N)C1=NC(C(=O)*)CS1; dOrn = NCCC[C@@H](N)C(=O)O
# Assay: hexokinase 1 inhibition, dose response, selectivity assay for HKDC1 inhibitor project, biochemical (AID 504763)
# Conditions: not given
row,SMILES,IC50
1,Cc1cccc(-n2c3nc(=O)[nH]c(=O)c-3cc3cc([N+](=O)[O-])ccc32)c1,> 80 µM
2,"O=C(CSc1nnc(-c2cccnc2)[nH]1)Nc1ccnc2ccccc12 [2-[(5-pyridin-3-yl-1H-1,2,4-triazol-3-yl)sulfanyl]-N-quinolin-4-yl-ethanamide]",11 µM
3,Oc1ccc(CN=Nc2ncc(Br)cn2)c(O)c1,> 80 µM
4,"Cc1cccc(N2C(=O)NC(=O)C(=Cc3ccc4c(c3)CCCN4Cc3ccccc3)C2=O)c1 [5-[1-(1-Benzyl-1,2,3,4-tetrahydro-quinolin-6-yl)-meth-(E)-ylidene]-1-m-tolyl-pyrimidine-2,4,6-trione]",> 80 µM
5,"CC(C)(C=O)C1=CC(=O)c2ccccc2C1=O [2-(1,4-dioxo-2-naphthalenyl)-2-methylpropanal]",> 80 µM
6,Oc1c(Cl)c(N=CCc2ccccc2)c(O)c2ccccc12 [MLS002608293],18.5 µM
7,"CCC(c1ccccc1)C(CC)c1cc(O)c(O)c(O)c1 (centres undefined) [5-(4-phenylhexan-3-yl)benzene-1,2,3-triol]",> 80 µM
8,"Cc1ccc(-n2c3nc(=O)[nH]c(=O)c-3cc3cc([N+](=O)[O-])ccc32)cc1 [10-(4-methylphenyl)-7-nitropyrimido[4,5-b]quinoline-2,4-dione]",19.4 µM
9,"CC(C)(C)c1c(Cl)c(O)c(-c2ccccc2)c(=O)n1-c1ccccc1 [2-tert-butyl-3-chloranyl-6-oxidanyl-1,5-diphenyl-pyridin-4-one]",> 80 µM
10,"COC(=O)C[C@]1(C(=O)OC)CN(C#N)N(c2ccc(Cl)cc2)C12c1ccccc1-c1ccccc12 [methyl 1-(4-chlorophenyl)-2-cyano-4-(2-methoxy-2-oxoethyl)spiro[pyrazolidine-5,9'-(9'H)-fluorene]-4-carboxylate]",> 80 µM
11,"CCCCNC(=O)c1sc(=S)n2c1[nH]c(=O)c1ccccc12 [N-butyl-5-oxo-1-thioxo-4,5-dihydro[1,3]thiazolo[3,4-a]quinazoline-3-carboxamide]",16.1 µM
12,Cc1nc([N+](=O)[O-])c(Br)n1CC(=O)c1ccc2ccccc2c1 [2-(5-bromanyl-2-methyl-4-nitro-imidazol-1-yl)-1-naphthalen-2-yl-ethanone],> 80 µM
13,O=C(O)c1ccc2ncsc2c1 [SMR000372672],> 80 µM
14,C=c1c(NC(C)=O)c(O)c2nc3n(c2c1O)CCC=3OC(=O)COC [SMR001565176],2.15 µM
15,Cc1ccc(/N=C/C2=CC(Cc3ccccc3Cl)C=C([N+](=O)[O-])C2=O)c(O)c1 (centres undefined),> 80 µM
16,"COc1ccc(NC(=O)CSc2ccc(-c3ccco3)nn2)c(OC)c1 [N-(2,4-dimethoxyphenyl)-2-[[6-(2-furanyl)-3-pyridazinyl]thio]acetamide]",5.55 µM
17,COc1cc(/C=C2/C(=O)NN(c3ccc(Cl)c(Cl)c3)C2=O)cc([N+](=O)[O-])c1O [SMR000554908],> 80 µM
18,COc1ccc(Cn2c(O)c3[nH]cccc-3c2=O)cc1,> 80 µM
19,"Cc1cc(C(F)F)n2ncc(C(=O)NCCc3ccc(Cl)cc3)c2n1 [N-[2-(4-chlorophenyl)ethyl]-7-(difluoromethyl)-5-methylpyrazolo[1,5-a]pyrimidine-3-carboxamide]",9.04 µM

row,SMILES,IC50
1,"COC1=C(Br)C(=O)c2ncccc2C1=O [7-bromo-6-methoxyquinoline-5,8-dione]",4.89 µM
2,COc1ccc(S(=O)(=O)Nc2ccc(O)c3ccccc23)cc1 [4-methoxy-N-(4-oxidanylnaphthalen-1-yl)benzenesulfonamide],> 80 µM
3,"CNCc1ccccc1Sc1cc(O)ccc1O [(Z)-2-butenedioic acid;2-[[2-(methylaminomethyl)phenyl]thio]benzene-1,4-diol]",4.58 µM
4,CCC(C)C(N)C1=NC(C(=O)N[C@@H](CC(C)C)C(=O)N[C@H](CCC(=O)O)C(=O)N[C@H](C(=O)N[C@H]2CCCCNC(=O)[C@H](CC(N)=O)NC(=O)[C@@H](CC(=O)O)NC(=O)[C@H](Cc3c[nH]cn3)NC(=O)[C@@H](Cc3ccccc3)NC(=O)[C@H]([C@@H](C)CC)NC(=O)[C@@H](CCCN)NC2=O)[C@@H](C)CC)CS1 (some centres undefined) [MLS002207255] (X1-L[dE]IK[dOrn]I[dF]H[dD]N; lactam 4-C),> 80 µM
5,O=C(/C=C/c1cccs1)Nc1scc(-c2ccccc2)c1C(=O)O [SMR000364116],> 80 µM
6,"COC(=O)[C@@H]1[C@@H](C(=O)OC)C2(c3ccccc3-c3ccccc32)N(c2ccc(Cl)cc2)N1C#N [(3'S,4'R)-1'-(4-chlorophenyl)-2'-cyanospiro[fluorene-9,5'-pyrazolidine]-3',4'-dicarboxylic acid dimethyl ester]",> 80 µM
7,O=C1c2ccccc2-c2onc3ccc(Oc4ccccc4)c1c23 [MLS000525578],> 80 µM
8,O=c1c2ccccc2nc(/C=C/c2cccnc2)n1Cc1ccccc1 [MLS000709026],> 80 µM
9,COc1ccc(NC(=O)Cc2c[nH]c3ccccc23)cc1S(=O)(=O)N1CCCCC1 [2-(1H-indol-3-yl)-N-(4-methoxy-3-piperidin-1-ylsulfonylphenyl)acetamide],> 80 µM
10,O=C1C=C(NCc2ccccc2)c2ccccc2C1=O [SMR000282064],1.9 µM
11,O=C1C=CC(=O)C(C2=C3C(=O)N(CCc4ccccc4)CC(=O)N3CCC2)=C1 [SMR000226463],6.85 µM
12,NC(=O)C1CCN(C2=C(Cl)C(=O)c3ccccc3C2=O)CC1 [SMR000180199],> 80 µM
13,O=C(O)CSc1cc(NS(=O)(=O)c2ccc(Cl)cc2)c2ccccc2c1O [2-[4-[(4-chlorophenyl)sulfonylamino]-1-hydroxynaphthalen-2-yl]sulfanylacetic acid],16.7 µM
14,CCOC(=O)c1ccc(NC2=CC(=O)C(=O)c3ccccc32)cc1,> 80 µM
15,"O=C1C=C(N2CCCCC2)c2ccccc2C1=O [4-piperidin-1-ylnaphthalene-1,2-dione]",2.39 µM
16,CCN(CC)CCCNC(=O)c1c(O)c2ccccc2n(Cc2ccccc2)c1=O [N-[3-(diethylamino)propyl]-2-oxidanyl-4-oxidanylidene-1-(phenylmethyl)quinoline-3-carboxamide;hydrochloride],> 80 µM
17,COC1=CC(=O)c2c(ccc3ncnc(N)c23)C1=O [MLS002701780],1.83 µM
18,Cc1ccc(Nc2c3[nH]cccc-3c(=O)n2-c2ccccc2C)cc1C [SMR000028201],> 80 µM

# Same assay, conditions: inactive by the depositor's call
row,SMILES,IC50
1,"CCOC(=O)C1=C(Cc2ccc(F)cc2)C(=O)c2ccccc2C1=O [ethyl 3-(4-fluorobenzyl)-1,4-dioxo-1,4-dihydro-2-naphthalenecarboxylate]",25.4 µM
2,NC1=CC(=O)C(=O)c2ccccc21,57.8 µM
3,COC(=O)c1ccccc1NC1=CC(=NS(=O)(=O)c2cccs2)c2ccccc2C1=O [methyl 2-[[(4E)-1-oxidanylidene-4-thiophen-2-ylsulfonylimino-naphthalen-2-yl]amino]benzoate],57 µM
4,Cc1ccc(-n2c3nc(=O)[nH]c(=O)c-3cc3cc([N+](=O)[O-])ccc32)cc1C,36.6 µM
5,Cc1cc(C)c(S(=O)(=O)N=C2C=C(Nc3ccc(C(=O)O)cc3)C(=O)c3ccccc32)c(C)c1 [MLS000948031],27.3 µM
6,"Cc1oc2c(c1C(=O)c1ccccc1)C(=O)C(=O)c1ccccc1-2 [2-methyl-3-(phenylcarbonyl)benzo[g][1]benzofuran-4,5-dione]",78.3 µM
7,"CCN(CC)CCNc1cc(C)nc2c1C(=O)C(=O)C=C2N1CCCCC1 [4-[2-(diethylamino)ethylamino]-2-methyl-8-piperidin-1-yl-quinoline-5,6-dione]",38.3 µM
